Bounds are passed on as bounds.

Experiment [1] relates to HCC-1806 cells. Kind of experiment: Cell viability, CellTiter-Glo, HCC-1806. Format: cell-based. As to conditions: Homo sapiens, HCC1806; 0.125 μM to 20 μM, CellTiter-Glo; read-out: IC50 cell viability HCC-1806. On the procedure: (§1) Given the known functions of CHOP in ER stress-induced apoptosis^16, 17 and in regulating cancer cell death,^6, 19, 20 the inventor investigated whether compound 1 affects the viability of TNBC cells. Three human TNBC cell lines, HCC-1806, HCC-1143, and HCC-38, were treated with doses of 1 ranging from 0.125 μM to 20 μM and their viability was assessed using the CellTiter-Glo assay, which measures intracellular ATP levels.
(§2) HCC-1806, HCC-1143, or HCC-38 cells were seeded at 3×10^3 cells/well in a 384-well plate and treated with compounds at the indicated concentrations. After 3 d treatment, the medium was aspirated and 20 μL/well of CellTiter-Glo reagent was added. Cell viability was measured with an EnVision multilabel plate reader. The IC50 value for cell viability of each compound was calculated with GraphPad Prism (La Jolla, Calif., US).

In experiment [2] the test system is endogenous CHOP gene. Description: Endogenous CHOP mRNA by qRT-PCR in HEK293 cells. The note with it: 10 μM, 24 h. The experiment is classed as cell-based, human.
Text: The primer sequences used were: Human CHOP: SEQ ID NO: 1 F, 5′-[sequence]-3′ and SEQ ID NO: 2 R, 5′-[sequence]-3′. Human ATF4: SEQ ID NO: 3 F, 5′-[sequence]-3′ and SEQ ID NO: 4 R, 5′-[sequence]-3′. […] Human Cyclophilin A: SEQ ID NO: 7 F, 5′-[sequence]-3′ and SEQ ID NO: 8 R, 5′-[sequence]-3′. Human GAPDH: SEQ ID NO: 9 F, 5′-[sequence]-3′ and SEQ ID NO: 10 R, 5′-[sequence]-3′.
The test system of experiment [3] is CHOP promoter-luciferase (CHOP-Luc) reporter. Kind of experiment: CHOP-Luc reporter assay in HEK293 cells (Bright-Glo). The note with it: 10 μM, 24 h. Format: cell-based, human.
Experimental: To identify compounds that activate the expression of CHOP, a HEK293 cell line stably expressing a CHOP-Luc reporter construct that faithfully reflects endogenous CHOP gene expression^21 was used to screen approximately 50,000 structurally diverse small molecules.
HEK293T CHOP-Luc cells were seeded at 7×10^3 cells/well in 384-well plates and treated with 10 μM of the library compounds the next day. After 24 h treatment, the medium was aspirated and 20 μL/well of Bright-Glo luciferase assay reagent was added. Luminescence was measured with an EnVision multilabel plate reader (PerkinElmer, Waltham, Mass., US). Hit selection was based on standard scores. The mean and standard deviation (SD) of luminescence for each compound was determined, and the standard score for each compound was then calculated as (raw measurement of a compound−mean)/SD of the plate. Compounds that increased ATP levels >3 SD compared with control wells (standard score >3) were considered hits.
Experiment [4] relates to HCC-1143 cells. Kind of experiment: Cell viability, CellTiter-Glo, HCC-1143. As to conditions: Homo sapiens, HCC1143; 0.125 μM to 20 μM, CellTiter-Glo; read-out: IC50 cell viability HCC-1143. Format: cell-based. As to the method: as §1, §2
In experiment [5] the test system is HCC-38 cells. Kind of experiment: Cell viability, CellTiter-Glo, HCC-38. Format: cell-based. The note with it: Homo sapiens, HCC38; 0.125 μM to 20 μM, CellTiter-Glo; read-out: IC50 cell viability HCC-38. As to the method: as §1, §2
In experiment [6] the test system is XBP1 mRNA splicing (IRE1α pathway). Description: XBP1 mRNA splicing by RT-PCR in HCC-1806 cells. The experiment is classed as cell-based, human. The note with it: HCC-1806, tunicamycin 1 μg/mL, at 8 h. On the procedure: FIG. 3E is a graph showing XBP1 mRNA levels in HCC-1806 cells treated with tunicamycin or a 5-nitrofuran-2-amide derivative compound 3d. HCC-1806 cells were treated with compound 3d (10 μM) or tunicamycin (Tm, 1 μg/mL) for the indicated times. XBP1 mRNA levels were analyzed by RT-PCR and the products were resolved by agarose gel electrophoresis. The full-length (unspliced, XBP1u) and spliced (XBP1s) forms of XBP1 mRNA are indicated. GAPDH mRNA was used as an internal control.
The percentage of XBP1s relative to total XBP1 was calculated as: (XBP1s/[XBP1s+XBP1u])×100%. The data shown are representative of 3 independent studies.
The inventor next asked whether the IRE1α and ATF6 branches of the unfolded protein response were also activated by compound 3d treatment of TNBC cells. […] XBP1 mRNA splicing, as measured by XBP1s levels, increased only slightly in the first 24 h after compound 3d treatment of HCC-1806 cells (from 11% of total XBP1 at 0 h to 15˜20% at 2˜24 h). […] Next, it was determined whether compound 3d activates the ATF6 pathway by evaluating its effect on the activity of an ER stress response elements (ERSE)-Luc reporter stably established in HEK293 cell line. […]

The test system of experiment [7] is ER stress response elements (ERSE)-Luc reporter. Kind of experiment: ERSE-Luc reporter assay in HEK293 cells. The experiment is classed as cell-based, human. As to conditions: Tm 1 μg/mL, 24 h. On the procedure: (§3) FIG. 3G is a graph showing HEK293 cells stably expressing CHOP-Luc, ERSE-Luc, or UPRE-luc reporters were treated with DMSO, a 5-nitrofuran-2-amide derivative, or tunicamycin. HEK293 cells stably expressing CHOP-Luc, ERSE-Luc, or UPRE-luc reporters were treated with DMSO, compound 3d (10 μM), or Tm (1 μg/mL) for 24 h, and luciferase activity was measured using the Bright-Glo assay. Results are the means of 4 replicate wells and are representative of 3 independent experiments.
(§4) The inventor next asked whether the IRE1α and ATF6 branches of the unfolded protein response were also activated by compound 3d treatment of TNBC cells. […] XBP1 mRNA splicing, as measured by XBP1s levels, increased only slightly in the first 24 h after compound 3d treatment of HCC-1806 cells (from 11% of total XBP1 at 0 h to 15˜20% at 2˜24 h). […] Next, it was determined whether compound 3d activates the ATF6 pathway by evaluating its effect on the activity of an ER stress response elements (ERSE)-Luc reporter stably established in HEK293 cell line.
(§5) The HEK293T CHOP reporter cell line (CHOP-Luc) was previously described.^21 HEK293T cells were stably transfected with ERSE-Luciferase^25 and UPRE-Luciferase^23 reporters to generate ERSE-Luc and UPRE-Luc reporter cell lines, respectively. […] Luciferase activity was measured with a Bright-Glo kit 24 h later.

Experiment [8] has as its system UPRE-Luciferase (UPRE-Luc) reporter. Description: UPRE-Luc reporter assay in HEK293 cells. Format: cell-based, human. As to conditions: 3d 10 μM or Tm 1 μg/mL, 24 h. As to the method: as §3, §4, §5

On to `O=C(Nc1ccc(I)cc1)c1ccc([N+](=O)[O-])o1` [Compound 1, N-(4-iodophenyl)-5-nitrofuran-2-carboxamide], for which the IC50 worked out at 6.2 µM in experiment [1], 9.5 µM in experiment [4] and 8.7 µM in experiment [5]. In experiment [2], the “increase of mRNA level of the endogenous CHOP gene” value is given as “up to 30 fold”. For the same compound, the “increase of CHOP-Luc reporter activity” value in experiment [3] is reported as 24 fold.
For tunicamycin [reference compound], the “XBP1s, percentage of total XBP1” value in experiment [6] is reported as about 87%. Further, the “increase of ERSE-driven luciferase activity” value in experiment [7] was about 12 fold. Also, in experiment [8], the “increase of UPRE-Luc luciferase activity” value was over 25 fold.
